Reference: PMC6983066, “Real-Time Optical Detection of Isoleucine in Living Cells through a Genetically-Encoded Nanosensor” (Sensors (Basel, Switzerland), 2019)

Key:
[1] = tested on: T1, GEII nanosensor (ECFP-LivJ-Venus); experiment: Specificity analysis of purified GEII nanosensor with amino acids and metal ions (Venus/ECFP FRET ratio, microplate); format: biochemical, E. coli; conditions: 1 and 10 mM amino acid, purified sensor
T1 construct: His-tag (from pRSET-B); made in house; host or cells: E. coli BL21 (DE3)
Method: The FRET ratio analysis was performed in 96-well microplate reader using the excitation filter/slits (430/20 nm) and emission filters/slits for ECFP (485/20 nm), and Venus (535/25 nm) respectively. Furthermore, the sensitivity of sensor protein was tested against 10 mM of different metals ions present in the human body i.e., NaCl, CaCl2, MgCl2, and KCl.

E. coli BL21(DE3) cells = experiment: Monitoring of isoleucine in living bacterial cells expressing GEII; format: cell-based; conditions: 10 mM amino acid, 45 min
Method: For monitoring of isoleucine in bacterial cells, the E. coli BL21(DE3) containing pRSET-B-GEII were incubated for 48 h at 21 °C. For appropriate protein folding of nanosensor protein, the culture was stored in 4 °C overnight. The bacterial cells were centrifuged and the resultant pellet of the bacterial cells was resuspended in MOPS buffer (20 mM). Twenty microliter 10 mM isoleucine was added to 180 µL resuspended bacterial cell in the wells of microplate. The ratio of fluorescence emission intensities of Venus/ECFP was recorded for 45 min.

LivJ = LivJ binding protein; no reference given; cited from earlier work

SMILES	change in FRET ratio of GEII with amino acid [1]	FRET ratio change of GEII in E. coli cells (E. coli BL21(DE3) cells)	Kd (LivJ)
C[C@H](N)C(=O)O [Alanine]	minimal		
N[C@@H](CS)C(=O)O [Cysteine]	minimal		
N[C@@H](CCC(=O)O)C(=O)O [Glutamate]	minimal		
CC[C@H](C)[C@H](N)C(=O)O [Isoleucine]	maximum	maximum FRET ratio change	0.9 µM
CC(C)C[C@H](N)C(=O)O [Leucine]	only mildly		2.3 µM
CSCC[C@H](N)C(=O)O [Methionine]	minimal		
N[C@@H](CO)C(=O)O [Serine]	minimal		
CC(C)[C@H](N)C(=O)O [Valine]	minimal		4 µM
N=C(N)NCCC[C@H](N)C(=O)O [arginine]	minimal		
NC(=O)C[C@H](N)C(=O)O [asparagine]	minimal		
N[C@@H](CC(=O)O)C(=O)O [aspartic acid]	minimal		
NC(=O)CC[C@H](N)C(=O)O [glutamine]	minimal		
NCC(=O)O [glycine]	minimal		
N[C@@H](Cc1c[nH]cn1)C(=O)O [histidine]	minimal		
NCCCC[C@H](N)C(=O)O [lysine]	minimal		
